Values of other authors in paper PMC3745299 (Journal of medicinal chemistry, 2013).
Like-named read-outs stand apart in the source and are kept apart here.

Columns and labels:
[1] = test system: human pregnane X receptor (hPXR); settings: below 100 μM
[2] = test system: Mycobacterium tuberculosis
[3] = test system: Cyp450; settings: rat
[4] = test system: Cyp450; settings: dog

Question: What does the source list for CO[C@H]1/C=C/O[C@@]2(C)Oc3c(C)c(O)c4c(=O)c(c5oc6cc(N7CCN(CC(C)C)CC7)cc(O)c6nc-5c4c3C2=O)NC(=O)/C(C)=C\C=C\[C@H](C)[C@H](O)[C@@H](C)[C@@H](O)[C@@H](C)[C@H](OC(C)=O)[C@@H]1C [bxRIF2a, rifalazil]?
Answer: hPXR activation in vitro [1]: essentially no hPXR activation; MIC90 [2]: < 4 nM; Cyp450 induction activity [3]: dramatically reduced; Cyp450 induction activity [4]: dramatically reduced
